Drawing on ChEMBL document CHEMBL5241137, “Evaluation of carboxylic acid-derivatized corroles as novel gram-positive antibacterial agents under non-photodynamic inactivation conditions” (2023), this text covers MIC for 9 compounds.

Test [1] relates to Staphylococcus aureus. Nature of the test: Antibacterial activity against methicillin-sensitive Staphylococcus aureus ATCC 29213 assessed as reduction in bacterial growth measured under non-photodynamic inactivation condition. The settings on record: ATCC 29213, light or radiation study. The class given is functional.
The subject of test [2] is Staphylococcus aureus. Nature of the test: Antibacterial activity against methicillin-resistant Staphylococcus aureus […] assessed as reduction in bacterial growth measured under non-photodynamic inactivation condition. It is filed as functional. The settings on record: light or radiation study.

Converted amounts (≈) assume the structure as drawn.

Consider `Cc1ccc(-c2c3nc(c(-c4cc(C(=O)O)cc(C(=O)O)c4)c4ccc([nH]4)c4ccc([nH]4)c(-c4cc(C(=O)O)cc(C(=O)O)c4)c4ccc2[nH]4)C=C3)cc1`, for which the MIC in test [1] and in test [2] was 12.5 µg/mL (≈ 17.4 µM) each time.
In the case of `Cc1ccc(-c2c3nc(c(-c4ccc(C(=O)O)cc4)c4ccc([nH]4)c(-c4ccc(C)cc4)c4ccc([nH]4)c4ccc2[nH]4)C=C3)cc1`, the MIC in test [1] and in test [2] was 100 µg/mL (≈ 167 µM) each time.
For the compound `O=C(O)c1ccc(-c2c3nc(c(-c4ccc(C(=O)O)cc4)c4ccc([nH]4)c4ccc([nH]4)c(-c4ccc(C(=O)O)cc4)c4ccc2[nH]4)C=C3)cc1`, the MIC in test [1] and in test [2] was 100 µg/mL (≈ 152 µM) throughout.
On to `O=S(=O)(O)CCNc1c(F)c(F)c(-c2c3nc(c(-c4c(F)c(F)c(NCCS(=O)(=O)O)c(F)c4F)c4ccc([nH]4)c4ccc([nH]4)c(-c4c(F)c(F)c(NCCS(=O)(=O)O)c(F)c4F)c4ccc2[nH]4)C=C3)c(F)c1F`, for which the MIC in test [1] was above 100 µg/mL; in test [2], 100 µg/mL (≈ 89.9 µM).
As to `Cc1c(C(=O)O)[nH]c(C(c2ccccc2)c2[nH]c(C(=O)O)c(C)c2C)c1C`, the results for the MIC in test [1] and in test [2] were 100 µg/mL (≈ 273 µM) and 50 µg/mL (≈ 136 µM), respectively.
In the case of `Fc1cc(F)c(F)c(-c2c3nc(c(-c4c(F)c(F)c(F)c(F)c4F)c4ccc([nH]4)c(-c4c(F)c(F)cc(F)c4F)c4ccc([nH]4)c4ccc2[nH]4)C=C3)c1F`, the MIC in test [1] was determined as 25 µg/mL (≈ 32.9 µM); in test [2] it was 12.5 µg/mL (≈ 16.4 µM).
The matching figures for `O=C(O)c1ccc(C(c2ccc[nH]2)c2ccc[nH]2)cc1`: 50 µg/mL (≈ 188 µM) and 50 µg/mL (≈ 188 µM).
As to `CO[C@@]1(NC(=O)Cc2cccs2)C(=O)N2C(C(=O)O)=C(COC(N)=O)CS[C@@H]21` [CEFOXITIN], the values for the minimal inhibitory concentration (MIC) in test [1] and in test [2] were 3.12 µg/mL (≈ 7.3 µM) and 25 µg/mL (≈ 58.5 µM), respectively.
In the case of `CN[C@H](CC(C)C)C(=O)N[C@H]1C(=O)N[C@@H](CC(N)=O)C(=O)N[C@H]2C(=O)N[C@H]3C(=O)N[C@H](C(=O)N[C@H](C(=O)O)c4cc(O)cc(O)c4-c4cc3ccc4O)[C@H](O)c3ccc(c(Cl)c3)Oc3cc2cc(c3O[C@@H]2O[C@H](CO)[C@@H](O)[C@H](O)[C@H]2O[C@H]2C[C@](C)(N)[C@H](O)[C@H](C)O2)Oc2ccc(cc2Cl)[C@H]1O` [VANCOMYCIN], the MIC in test [1] and in test [2] was 0.39 µg/mL (≈ 0.269 µM) throughout.

The term MIC denotes the smallest concentration in the dilution series that meets the test's criterion for growth inhibition.
